Assay results published in EP2185126B1, “USE OF TROXERUTIN TO QUENCH THE FLUORESCENCE OF DISODIUM PHENYL DIBENZIMIDAZOLE TETRASULFONATE” (Symrise AG, priority 2007, dated 2007).

What was measured:
Solubility in water = type: physicochemical
[1] = Colour and colour stability of emulsion on storage; type: physicochemical; settings: emulsion prepared with the substance

solubility in water (Solubility in water)	SMILES	colour / colour stability of emulsion [1]
poorly soluble in water	C[C@@H]1O[C@@H](O[C@H]2[C@H](Oc3cc(O)c4c(c3)O[C@H](c3ccc(O)cc3)CC4=O)O[C@H](CO)[C@@H](O)[C@@H]2O)[C@H](O)[C@H](O)[C@H]1O [naringin]	less susceptible to colouration problems than other flavone derivatives
ease of solubility in water	C[C@@H]1O[C@@H](OC[C@H]2O[C@@H](Oc3c(-c4ccc(OCCO)c(OCCO)c4)oc4cc(OCCO)cc(O)c4c3=O)[C@H](O)[C@@H](O)[C@@H]2O)[C@H](O)[C@H](O)[C@H]1O [troxerutin, 7,3',4'-tris[O-(2-hydroxyethyl)]rutin]	long term colour stability
–	O=c1c(O)c(-c2ccc(O)c(O)c2)oc2cc(O)cc(O)c12 [quercetin]	deeply yellow in colour
–	C[C@@H]1O[C@@H](OC[C@H]2O[C@@H](Oc3c(-c4ccc(O)c(O)c4)oc4cc(O)cc(O)c4c3=O)[C@H](O)[C@@H](O)[C@@H]2O)[C@H](O)[C@H](O)[C@H]1O [rutin]	beige in colour and on storage turns dark brown

SMILES	solubility in water (Solubility in water)	colour / colour stability of emulsion [1]
COc1ccc([C@@H]2CC(=O)c3c(O)cc(O[C@@H]4O[C@H](CO[C@@H]5O[C@@H](C)[C@H](O)[C@@H](O)[C@H]5O)[C@@H](O)[C@H](O)[C@H]4O)cc3O2)cc1O [hesperidin]	poorly soluble in water	less susceptible to colouration problems than other flavone derivatives
